In series [1] the target is T1, CYP1A2 (Homo sapiens, UniProt P05177).
T1 sequence (P05177 1-516): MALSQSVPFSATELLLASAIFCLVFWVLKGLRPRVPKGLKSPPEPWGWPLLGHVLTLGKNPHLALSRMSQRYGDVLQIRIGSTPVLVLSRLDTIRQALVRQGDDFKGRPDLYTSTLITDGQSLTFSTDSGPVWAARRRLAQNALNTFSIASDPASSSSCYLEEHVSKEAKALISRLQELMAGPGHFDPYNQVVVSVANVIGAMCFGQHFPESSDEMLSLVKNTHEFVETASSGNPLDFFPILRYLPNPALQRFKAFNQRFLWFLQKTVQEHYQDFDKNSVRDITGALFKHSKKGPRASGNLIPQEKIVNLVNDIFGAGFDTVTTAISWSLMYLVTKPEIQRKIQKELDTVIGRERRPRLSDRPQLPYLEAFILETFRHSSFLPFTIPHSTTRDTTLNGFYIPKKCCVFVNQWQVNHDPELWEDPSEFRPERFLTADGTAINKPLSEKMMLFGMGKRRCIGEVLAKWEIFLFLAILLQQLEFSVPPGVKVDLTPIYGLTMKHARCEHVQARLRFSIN
The note with it: HLM; cited from earlier work.

For series [2] the following is noted: humans; cited from earlier work.
Series [3] deals with T1, CYP1A2. To be noted: read-out: IC50 for CYP1A2-mediated phenacetin O-deethylation in HLM; cited from earlier work.
Series [4] can be described thus: Pharmacokinetics of caffeine alone and with pinocembrin in rats. Type of series: in vivo. To be noted: male, Wistar, rat, plasma, po, 15 mg/kg.
For series [5], the system named is CYP1A2. To be noted: cited from earlier work.
The target of series [6] is T2, CYP1A2 (Rattus norvegicus, UniProt P04799).
T2 sequence (P04799 1-513): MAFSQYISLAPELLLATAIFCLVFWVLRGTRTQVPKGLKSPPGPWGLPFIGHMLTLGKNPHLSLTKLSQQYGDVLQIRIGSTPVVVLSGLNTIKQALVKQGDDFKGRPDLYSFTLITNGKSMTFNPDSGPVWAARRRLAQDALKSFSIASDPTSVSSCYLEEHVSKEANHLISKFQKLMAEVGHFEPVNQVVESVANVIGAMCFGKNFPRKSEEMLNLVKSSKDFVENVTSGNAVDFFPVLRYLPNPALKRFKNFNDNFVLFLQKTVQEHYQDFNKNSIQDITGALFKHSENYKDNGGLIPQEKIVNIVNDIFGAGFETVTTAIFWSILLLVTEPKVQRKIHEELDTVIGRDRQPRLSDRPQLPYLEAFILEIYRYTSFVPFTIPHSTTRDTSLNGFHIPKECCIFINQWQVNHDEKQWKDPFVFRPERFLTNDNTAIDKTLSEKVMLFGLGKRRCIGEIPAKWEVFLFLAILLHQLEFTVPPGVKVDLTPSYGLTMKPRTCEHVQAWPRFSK
To be noted: read-out: IC50 for CYP1A2 in RLM; cited from earlier work.

Series [7] is classed as in vivo, Wistar rats. The note with it: male, Wistar, rat, plasma, po, 4 mg/kg; for AUC(0-t): AUC0–t, tacrine 4 mg/kg oral alone (group III); for half-life: T1/2, tacrine 4 mg/kg oral alone (group III).
Series [8] deals with T1, CYP1A2. The note with it: cited from earlier work.
Series [9] addresses T1, CYP1A2. The note with it: HLM 0.3 mg/mL, phenacetin 1–1500 μM, 30 min.
For a further series, the system named is CYP3A4. The note with it: read-out: IC50 for CYP3A4 inhibition; cited from earlier work.
The nature of series [10]: Liver distribution of pinocembrin after intravenous dosing in rats. Type of series: in vivo. The note with it: male, Wistar, rat, 10 mg/kg.
Series [11] is described as follows: Stability of pinocembrin in RLM. Type of series: in vitro ADME, rat. The note with it: protocol as for HLM.
Series [12] is described as follows: Stability of pinocembrin in HLM. Type of series: in vitro ADME, human. To be noted: pinocembrin 5 μM, HLM 0.3 mg/mL, 0-30 min, 37 °C.
The test system of another series is CYP2C9. The note with it: read-out: IC50 for CYP2C9 inhibition; cited from earlier work.
The next series has as its system CYP2C19. To be noted: read-out: IC50 for CYP2C19 inhibition; cited from earlier work.
The target of series [13] is T2, CYP1A2. Description: CYP1A2-catalyzed phenacetin O-deethylation in RLM. Type of series: in vitro ADME.
For series [14] the following is noted: humans; cited from earlier work. This is another data set of the same source.

Several values for one entry are separate records, joined by “and”; a condition that tells them apart may be missing. Equal values may be shown once. Read-outs that look alike come from different tables or passages of the source.

As for `O=c1cc(-c2ccc(O)c(O)c2)oc2cc(O)cc(O)c12` [Luteolin], the “type of CYP1A2 inhibition” value on CYP1A2 [1] is reported as “competitively”.
On to `CS(=O)(=O)c1ccc(C2=C(c3ccccc3)C(=O)OC2)cc1` [Rofecoxib], for which the “increase in plasma concentration of the CYP1A2 substrate tizanidine” value in series [2] was 13.6 fold. The half-inhibitory concentration (IC50) – broadly, the concentration needed to halve the response being measured – at CYP1A2 [3] is 4.2 µM.
`Cn1c(=O)c2c(ncn2C)n(C)c1=O` [caffeine]: the exposure AUC(0-t) – broadly, exposure summed from dosing to a finite time, without extrapolation to infinity – in series [4] (AUC0–t, caffeine 15 mg/kg oral alone (group I)) was determined as 2840 ± 141 ng·h/mL. In [4] (T1/2, caffeine 15 mg/kg oral alone (group I)), the half-life (commonly the time in which the quantity being followed falls by half) was 1.1 ± 0.1 h. For the same compound, the “portion of the drug metabolized by CYP1A2” value in the series with CYP1A2 [5] is over 95%.
`Cc1nc2c([nH]1)c(=O)n(C)c(=O)n2Cc1ccco1` [furafylline]: the IC50 on CYP1A2 [6] was 20.8 µM.
In series [7], `Nc1c2c(nc3ccccc13)CCCC2O` (stereo not drawn) [hydroxytacrine, 1-hydroxytacrine] showed an exposure AUC(0-t) of 907 ± 129 ng·h/mL and a half-life of 1.5 ± 0.3 h.
As to `CC(C)C1=Cc2ccc3c(c2C(=O)C1=O)CCCC3(C)C` [miltirone], the “type of CYP1A2 inhibition” value at CYP1A2 [8] (kinetic analysis) is “mixed-type”. In addition, the IC50 on CYP1A2 [8] (read-out: IC50 for CYP1A2 in HLM, HLM) is 1.73 µM.
Consider `CCOc1ccc(NC(C)=O)cc1` [phenacetin], for which, at CYP1A2 [9], the “maximum velocity of the uninhibited reaction (Vmax) for CYP1A2-catalyzed phenacetin O-deethylation” value is reported as 1584 ± 12 pmol/min/mg of protein.
Consider `O=C1C[C@@H](c2ccccc2)Oc2cc(O)cc(O)c21` [pinocembrin], for which the 50% inhibitory concentration (IC50) with CYP3A4 was 28 µM; in the series with CYP2C9 it was 13 µM; in the series with CYP2C19 it was 22 µM; on CYP1A2 [13], 3.11 ± 0.09 µM. Also, in series [10] (liver and plasma), the Kp – broadly, tissue or fluid exposure divided by exposure in the circulation – lay in the range of 1.8 to 3.8. Also, the concentration at 5 min in series [10] (liver) is 3680 ng/g; in [10] (plasma), 2030 ng/mL and 7.9 µM. Moreover, the concentration at 15 min in series [10] (liver) turned out to be 2380 ng/g; in series [10] (plasma), 621 ng/mL. Further, the “Stability of pinocembrin in RLM (amount remaining vs 0 min)” value in series [11] is recorded as “stable”. Also, in series [12], the “Stability of pinocembrin in HLM (amount remaining vs 0 min)” value is reported as “stable”.
In series [7], `Nc1c2c(nc3ccccc13)CCCC2` [tacrine] gave an AUC(0-t) of 142 ± 13 ng·h/mL and a half-life of 1.7 ± 0.2 h. Besides, in the series on CYP1A2 [5], the “contribution of CYP1A2 to metabolism” value is listed as over 90%.
As for `c1ccc2[nH]c(-c3cscn3)nc2c1` [thiabendazole], in series [14], the “enhancement in the plasma level of caffeine” value was 1.6 fold.
